Values quoted from earlier work, collected in patent US6361800B1 (Cooper Concepts, Inc., priority 2000, dated 2002).
Like-named read-outs stand apart in the source and are kept apart here.

Conditions: 100 I.U. taken for two years or longer

Substance: vitamin E
- reduced deaths of coronary artery disease (39,910 male health professionals): 37%
- reduced deaths of coronary artery disease (87,245 nurses): 40%
